Experimental data: paper PMC4860888 (Theranostics, 2016)

How the values were obtained:
HDAC = settings: cited from earlier work
[1] = test system: AK7 murine mesothelioma cells; type: in vivo, C57Bl/6 mice; settings: decitabine 4 µg/g i.p. days 7 and 9

## CC(C=CC(=O)NO)=C[C@H](C)C(=O)c1ccc(N(C)C)cc1 [(S)-isomer]
HDAC
  Fold less potent than (R)-trichostatin A: 70 fold

## Nc1ncn([C@H]2C[C@H](O)[C@@H](CO)O2)c(=O)n1 [decitabine]
[1]
  Anti-tumor effect by itself: no anti-tumor effect
